# In ChEMBL document CHEMBL1201862, “PubChem BioAssay data set” (2004):
# The source made the active and inactive calls.
# What was measured:
# [1] = biological target: T1, E3 ubiquitin-protein ligase XIAP (Homo sapiens, UniProt P98170); assay: small molecules displacing peptide from XIAP – biochemical, IAP family, fluorescence polarization (AID 1018); format: functional
# [2] = biological target: T1, E3 ubiquitin-protein ligase XIAP; assay: Counter Screen using XIAP-Bir3 for Chemical Antagonists of Bir1/2 domains of IAP-family anti-apoptotic proteins. [Related pubchem assays (depositor defined):AID1018, AID1449, AID1514, AID1638, AID1749, AID1750, AID488957, AID488963]
# Perilipin-1/ABHD5 = Perilipin-1/ABHD5 (Homo sapiens, UniProt O60240+Q8WTS1); assay: Luminescence-based biochemical high throughput dose response assay for inhibitors of the interaction of the lipase co-activator protein, abhydrolase domain containing 5 (ABHD5) with perilipin-1 (PLIN1) (2K validation set). [Related pubchem assays (depositor defined):AID493027, AID493057]
# [3] = biological target: 1-acylglycerol-3-phosphate O-acyltransferase ABHD5/Perilipin-5 (Homo sapiens, UniProt Q00G26+Q8WTS1); assay: Luminescence-based biochemical high throughput dose response assay for inhibitors of the interaction of the lipase co-activator protein, abhydrolase domain containing 5 (ABHD5) with perilipin-5 (MLDP; PLIN5) (2K validation set). [Related pubchem assays (depositor defined):AID493035, AID493241]
# T-cell = assay: loss of vesicle association with mouse CD8+ T cells – mouse 2C CD8+ T cells, flow cytometry, dose response (AID 485284); format: functional
# INS1 = assay: INS-1E survival protection against cytokine death – cell-based, luminescence, retest, dose response (AID 449756); format: functional; details: Rattus norvegicus;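 further: cell death triggered by IL-1 beta plus TNF-alpha plus IFN-gamma mixture; protective hits raise ATP signal compared with cytokine alone wells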
# [4] = Intein inhibitors as potential Tuberculosis drugs, a cytotoxicity screen. [Related pubchem assays (depositor defined):AID2221, AID2223, AID434968, AID435010, AID449749, AID449750, AID489010]; format: functional
# Vero = assay: viability of Vero cells under compound – cytotoxicity control for flavivirus capping enzyme inhibitors (AID 588742); format: functional; details: Chlorocebus sabaeus
# Protein RecA = biological target: T2, Protein RecA (Mycobacterium tuberculosis, UniProt P9WHJ3); assay: Fluorescence Cell-Free Homogeneous Dose Retest to Identify Inhibitors of RecA-Intein Splicing Activity. [Related pubchem assays (depositor defined):AID2097, AID2223, AID489010, AID492950]; format: functional
# T2 sequence (P9WHJ3 whole entry): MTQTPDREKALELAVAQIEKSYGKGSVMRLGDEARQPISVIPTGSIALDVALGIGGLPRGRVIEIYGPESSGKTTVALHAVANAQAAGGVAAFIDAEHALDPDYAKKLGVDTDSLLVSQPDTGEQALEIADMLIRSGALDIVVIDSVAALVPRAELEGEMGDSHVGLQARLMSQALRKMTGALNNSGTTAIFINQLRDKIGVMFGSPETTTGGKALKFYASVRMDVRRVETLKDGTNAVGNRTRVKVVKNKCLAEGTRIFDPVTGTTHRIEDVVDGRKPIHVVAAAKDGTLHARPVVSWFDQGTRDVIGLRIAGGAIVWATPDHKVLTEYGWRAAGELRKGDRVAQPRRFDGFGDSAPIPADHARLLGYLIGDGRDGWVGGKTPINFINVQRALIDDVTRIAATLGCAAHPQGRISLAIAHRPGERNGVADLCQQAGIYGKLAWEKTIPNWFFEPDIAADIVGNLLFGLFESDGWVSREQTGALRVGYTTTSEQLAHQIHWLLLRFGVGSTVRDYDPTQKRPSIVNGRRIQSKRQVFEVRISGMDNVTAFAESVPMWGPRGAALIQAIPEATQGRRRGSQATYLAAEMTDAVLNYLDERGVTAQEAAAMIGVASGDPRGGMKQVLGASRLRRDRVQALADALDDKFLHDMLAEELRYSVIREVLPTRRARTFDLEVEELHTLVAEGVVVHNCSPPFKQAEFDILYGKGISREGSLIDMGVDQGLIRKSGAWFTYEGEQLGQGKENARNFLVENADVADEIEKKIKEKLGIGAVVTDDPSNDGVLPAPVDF
# Genome polyprotein = Genome polyprotein (dengue virus type 2, UniProt P29990); assay: flavivirus cap methylation enzyme inhibition – biochemical, confirmation dose response, primary screen (AID 588689); format: functional
# [5] = biological target: T3, Replicative DNA helicase DnaB (Mycobacterium tuberculosis, UniProt P9WMR3); assay: DnaB intein splicing inhibitors, dose response, biochemical, cell-free fluorescence (AID 449749); format: functional
# T3 sequence (P9WMR3 whole entry): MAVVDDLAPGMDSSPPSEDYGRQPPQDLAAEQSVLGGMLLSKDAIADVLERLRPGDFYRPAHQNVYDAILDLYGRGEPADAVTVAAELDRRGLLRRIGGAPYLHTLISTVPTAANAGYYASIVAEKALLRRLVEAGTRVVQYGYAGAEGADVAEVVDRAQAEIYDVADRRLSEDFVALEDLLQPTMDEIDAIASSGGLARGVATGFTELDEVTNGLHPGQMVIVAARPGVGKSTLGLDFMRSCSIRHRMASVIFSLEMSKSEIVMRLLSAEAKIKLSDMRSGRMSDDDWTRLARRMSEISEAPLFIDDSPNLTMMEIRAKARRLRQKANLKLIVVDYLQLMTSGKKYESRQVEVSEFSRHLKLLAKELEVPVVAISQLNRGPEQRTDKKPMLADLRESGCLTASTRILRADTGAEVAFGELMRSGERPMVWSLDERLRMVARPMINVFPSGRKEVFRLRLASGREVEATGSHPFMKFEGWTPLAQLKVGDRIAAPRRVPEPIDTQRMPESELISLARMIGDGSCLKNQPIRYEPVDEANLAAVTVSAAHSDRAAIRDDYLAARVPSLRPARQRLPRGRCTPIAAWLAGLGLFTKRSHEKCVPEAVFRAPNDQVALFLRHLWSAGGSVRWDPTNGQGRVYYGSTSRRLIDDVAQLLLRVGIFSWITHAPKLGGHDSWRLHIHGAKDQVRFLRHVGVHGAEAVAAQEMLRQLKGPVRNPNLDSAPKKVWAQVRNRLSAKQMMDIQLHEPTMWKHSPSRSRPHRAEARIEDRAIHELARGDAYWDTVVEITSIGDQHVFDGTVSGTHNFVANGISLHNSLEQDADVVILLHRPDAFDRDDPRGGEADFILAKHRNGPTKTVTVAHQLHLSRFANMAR
# [6] = Luminescence Cell-Based Dose Retest to Confirm Inhibitors of Cancer Stem Cells. [Related pubchem assays (depositor defined):AID2717, AID2721]; format: functional; details: Homo sapiens
# [7] = viability loss in HepG2 hepatoma cells – cell-based, ATP luminescence, cherry-pick, activator set 2, cytotoxicity control, dose response (AID 1053143); format: functional
# Troponin, cardiac muscle = Troponin, cardiac muscle (Homo sapiens, UniProt P19429+P45379+P63316); assay: Fluorescence-based biochemical high throughput dose response assay for activators of the calcium sensitivity of cardiac Regulated Thin Filaments (RTF). [Related pubchem assays (depositor defined):AID493008, AID493018, AID504382, AID504383]; format: protein-complex assay
# Coagulation factor XII = biological target: T4, Coagulation factor XII (Homo sapiens, UniProt P00748); assay: Factor XIIa Dose Response Confirmation from Single Well HTS. [Related pubchem assays (depositor defined):AID701]; format: functional
# T4 sequence (P00748 whole entry): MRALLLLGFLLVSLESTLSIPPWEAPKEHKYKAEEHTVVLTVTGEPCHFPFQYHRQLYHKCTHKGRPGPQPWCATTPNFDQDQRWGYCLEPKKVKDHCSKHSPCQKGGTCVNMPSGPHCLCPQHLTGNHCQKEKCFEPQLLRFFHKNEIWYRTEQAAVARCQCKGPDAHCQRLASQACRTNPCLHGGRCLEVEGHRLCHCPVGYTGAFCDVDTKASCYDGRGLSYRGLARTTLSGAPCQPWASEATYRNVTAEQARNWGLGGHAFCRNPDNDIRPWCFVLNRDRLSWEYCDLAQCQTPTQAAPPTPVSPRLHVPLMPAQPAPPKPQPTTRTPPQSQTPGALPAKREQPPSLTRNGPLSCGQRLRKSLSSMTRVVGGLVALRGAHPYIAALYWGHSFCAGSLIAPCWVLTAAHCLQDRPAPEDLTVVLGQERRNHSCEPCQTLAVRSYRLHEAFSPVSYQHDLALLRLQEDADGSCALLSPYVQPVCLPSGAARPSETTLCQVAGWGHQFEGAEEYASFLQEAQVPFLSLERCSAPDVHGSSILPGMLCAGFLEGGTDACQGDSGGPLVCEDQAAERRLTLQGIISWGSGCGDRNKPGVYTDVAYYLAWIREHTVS
# [8] = biological target: T5, Kappa-type opioid receptor (Homo sapiens, UniProt P41145); assay: SAR analysis of Antagonists of the Kappa Opioid Receptor (KOR) using an Image-Based Assay - Set 3. [Related pubchem assays (depositor defined):AID1777, AID1785]; format: functional
# [9] = biological target: Delta-type opioid receptor (Homo sapiens, UniProt P41143); assay: SAR Analysis of Antagonists of the DOR Receptor using an Image-Based Assay - Set 3. [Related pubchem assays (depositor defined):AID1777, AID1785]; format: functional;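 further: U2OS cells expressing DOR1 and beta-arrestin GFP stimulated with 100 nM SNC80; imaging of GFP-tagged beta-arrestin moving into spots after receptor activation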
# Mu-type opioid receptor = Mu-type opioid receptor (Homo sapiens, UniProt P35372); assay: SAR Analysis of Antagonists of the MOR Receptor using an Image-Based Assay - Set 3. [Related pubchem assays (depositor defined):AID1777, AID1785, AID1786, AID1966, AID2133, AID2136, AID2284, AID2285, AID2420]; format: functional
# [10] = biological target: T5, Kappa-type opioid receptor; assay: SAR analysis of small molecule antagonists of the kappa opioid receptor via a luminescent beta-arrestin assay - Set 3. [Related pubchem assays (depositor defined):AID1777, AID1778, AID1785, AID1786, AID1966, AID2133, AID2136, AID2285, AID2495]; format: functional
# [11] = NIH3T3 cell viability loss – ATP luminescence, mouse fibroblasts, counter-screen, dose response (AID 2010); format: functional, cell-based;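 further: cells exposed to compound for about 90 hours before reading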
# [12] = toxicity toward cultured mammalian cells – cell-based, plate reader, cherry-pick samples, cytotoxicity control, dose response (AID 504397); format: functional
# [13] = tested on: Streptococcus sp. 'group A'; assay: Streptococcus pyogenes SK(-)GAS viability under kanamycin – luminescence, BacTiterGlo, confirmation, counter-screen for streptokinase expression inhibitor project, dose response (AID 1900); format: functional, organism-based
# CAAX prenyl protease 2 = biological target: T6, CAAX prenyl protease 2 (Homo sapiens, UniProt Q9Y256); assay: inhibition of Ras-converting CAAX protease Rce1 – biochemical, yeast membranes, quenched-peptide fluorescence, cherry-pick, dose response (AID 588849)
# T6 sequence (Q9Y256 whole entry): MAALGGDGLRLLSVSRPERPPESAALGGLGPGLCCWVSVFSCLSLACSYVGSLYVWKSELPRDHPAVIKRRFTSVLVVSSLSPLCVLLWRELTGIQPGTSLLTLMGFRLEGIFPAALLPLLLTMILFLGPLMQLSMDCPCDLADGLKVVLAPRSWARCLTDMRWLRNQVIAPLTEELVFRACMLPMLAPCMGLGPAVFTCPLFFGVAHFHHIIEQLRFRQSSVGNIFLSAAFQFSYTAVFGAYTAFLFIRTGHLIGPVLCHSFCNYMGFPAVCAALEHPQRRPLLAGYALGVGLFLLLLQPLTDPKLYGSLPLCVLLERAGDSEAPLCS
# [14] = Trypanosoma cruzi growth suppression in host cells – NIH3T3 host cells, beta-gal luminescence, confirmation (AID 2044); format: functional, cell-based;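 further: intracellular parasites grown in NIH/3T3 mouse fibroblasts as host cells; luminescent beta-galactosidase reporter signal from transgenic T. cruzi replicating inside host cells; inhibitors lower the luminescence signal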
# Streptococcus = assay: GAS UMAA2166 growth inhibition – luminescence, BacTiterGlo, counter-screen for streptokinase expression inhibitor project, dose response (AID 1915); format: functional, organism-based;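 further: potency for reduction of bacterial viability or growth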
smiles,measurement,setting,value
CC(=O)NCCc1nc2ccccc2n1CCc1ccccc1,IC50,[1],> 100 µM (not active)
same,IC50,[2],> 100 µM (inactive)
COC(=O)[C@@H](N)CS,IC50,Perilipin-1/ABHD5,7.34 µM (active)
same,IC50,[3],4.64 µM (active)
CCOC(=O)c1c(C=O)c2ccccc2n1CC,EC50,T-cell,27.8 µM (inactive)
COC(=O)c1sc(-c2ccc(C(C)(C)C)cc2)cc1NC(=O)/C=C/C(=O)O,AC50,INS1,4.68 µM (active)
same,CC50,[4],11.5 µM (active)
same,CC50,Vero,14.1 µM (active)
same,EC50,Protein RecA,0.701 µM (active)
same,IC50,Genome polyprotein,65.2 µM (active)
same,AC50,[5],2.55 µM (active)
same,AC50,[6],3.96 µM (active)
same,AC50,[7],23.4 µM (active)
Cc1ccnc2nc(C(=O)OCC(=O)NCCc3ccccc3)nn12,EC50,"Troponin, cardiac muscle",> 71.5 µM (inactive)
CC(C)C(C)(C#N)NC(=O)CSc1nnc(C(F)(F)F)n1C (stereo not given),IC50,Coagulation factor XII,> 50 µM (inactive)
CCc1ccc(S(=O)(=O)NCc2ccc(C(=O)NCCN(CC)Cc3ccccc3)cc2)cc1,IC50,[8],1.99 µM (active)
same,IC50,[9],> 32 µM (inactive)
same,IC50,Mu-type opioid receptor,19.5 µM (inactive)
same,IC50,[10],14.4 µM (inactive)
C/C(Cl)=C\Cn1c(O)c(/N=N/C(=N)S)c2cc(Br)ccc21,EC50,[11],> 30 µM (not active)
same,AC50,[12],281 µM (active)
same,EC50,[13],1.26 µM (active)
same,AC50,CAAX prenyl protease 2,12.6 µM (active)
same,EC50,[14],1.32 µM (active)
same,EC50,Streptococcus,3.93 µM (active)
